Experimental findings from ChEMBL document CHEMBL4229325, “Angiogenesis and cancer stem cells: New perspectives on therapy of ovarian cancer” (Eur J Med Chem, 2017) are described below.

Broadly, the IC50 is the concentration at which inhibition is half-maximal.

Assay [1] relates to OVCAR-8. Put plainly: Cytotoxicity against human OVCAR8 cells assessed as cell viability level at 8 uM incubated for 72 hrs by MTT assay. It counts as functional.
A short description of assay [2]: Growth inhibition of human ovarian epithelial cancer cells at 0.5 uM in presence of 20 nM PTX. It counts as functional.
Assay [3] relates to NCI/ADR-RES. In words: Cytotoxicity against human NCI-ADR-RES cells assessed as cell viability at 8 uM incubated for 72 hrs by MTT assay. The note with it: read-out: Activity. In kind it is functional.
The subject of assay [4] is OVCAR-8. In words: Cytotoxicity against human OVCAR8 cells assessed as cell viability level at 4 uM incubated for 72 hrs by MTT assay. It counts as functional. For orientation: Tetrazolium assays rely on reduction of a dye to a coloured formazan, in cell work by metabolically active cells.
A short description of assay [5]: Cytotoxicity against human A2780/DX cells assessed as cell viability at 4 uM incubated for 72 hrs by MTT assay. It counts as functional. The conditions noted are these: read-out: Activity.
A further assay concerns C13. Put plainly: Antitumor activity against human C13 cells xenografted in mouse assessed as tumor volume at 5 mg/kg, ip dosed every other day for 3 weeks and measured every two days (reference value: 252.5 +/- 63.4 mm3). It counts as functional.
A short description of assay [6]: Growth inhibition of human ovarian cancer stem cells at 0.5 uM in presence of 20 nM PTX. It counts as functional.
The subject of assay [7] is 2008. Put plainly: Cytotoxicity against human OV2008 cells assessed as reduction in cell viability incubated for 24 hrs by MTT assay. It counts as functional, cell-based. The conditions noted are these: Homo sapiens, 2008, 24 h.
Assay [8] has as its system 2008. Put plainly: Cytotoxicity against human OV2008 cells assessed as reduction in cell viability incubated for 48 hrs by MTT assay. It counts as functional, cell-based. The conditions noted are these: Homo sapiens, 2008, 48 h.
The test system of assay [9] is 2008. Put plainly: Cytotoxicity against human OV2008 cells assessed as reduction in cell viability incubated for 72 hrs by MTT assay. It counts as functional, cell-based. The conditions noted are these: Homo sapiens, 2008, 72 h.
Assay [10] deals with NCI/ADR-RES. Put plainly: Cytotoxicity against human NCI-ADR-RES cells assessed as cell viability at 4 uM incubated for 72 hrs by MTT assay. In kind it is functional. The note with it: read-out: Activity.
The nature of assay [11]: Cytotoxicity against human A2780/DX cells assessed as cell viability at 8 uM incubated for 72 hrs by MTT assay. The note with it: read-out: Activity. It counts as functional.
Assay [12] is described as follows: Cytotoxicity against human A2780cis cells assessed as cell viability at 8 uM incubated for 72 hrs by MTT assay. It counts as functional. The note with it: read-out: Activity.

Consider `CC[C@@H](C(=O)[C@@H](C)[C@@H](O)[C@H](C)[C@@H]1O[C@@H]([C@@H](CC)C(=O)O)CC[C@@H]1C)[C@H]1O[C@]2(C=C[C@@H](O)[C@]3(CC[C@@](C)([C@H]4CC[C@](O)(CC)[C@H](C)O4)O3)O2)[C@H](C)C[C@@H]1C` [SALINOMYCIN], for which the Activity with OVCAR-8 [1] amounted to 45%; with OVCAR-8 [4], 53%; in the assay on C13 it was 84.2 mm3. The “growth inhibition (GI)” value was 58% in [2] and 59% in assay [6]. In addition, the values for the viability at 8 µM (with NCI/ADR-RES [3]; in assay [11]; in assay [12]) were 37%, 43% and 55%, respectively. In addition, the viability at 4 µM (in [5]; with NCI/ADR-RES [10]) was 50% throughout. The IC50 in the assay with 2008 [7] stood at 7.44 µM; with 2008 [8], 4.78 µM; with 2008 [9] it was 3.2 µM.
